Measurements as given in patent US20130217639A1, “COMPOUND FOR ACTIVATING NATURAL KILLER T CELLS AND PREPARING METHOD THEREOF” (NATIONAL TSING HUA UNIVERSITY, priority 2012, published 2013).
“Also recorded” adds a separate entry of the source.

System: human Vα24+/Vβ11+ iNKT cells
Assay: Stimulation of human Vα24+/Vβ11+ NKT cell populations in PBMC culture, flow cytometry
Type: cell-based
Settings: PBMC from a normal healthy donor, 100 nM, 14 days of culture
Experimental: Peripheral blood mononuclear cells (PBMC) from a normal healthy donor were incubated with each individual compound at a final concentration of 100 nM. After 14 days of culture, NKT cell frequencies were determined by flow cytometry. NKT cell frequencies were defined as the percentage of Vα24+/V−β11+ cells among gated lymphocytes in the upper right (UR) corner for each case. Shown here are the profiles of PBMC harvested from 14-day cultures containing (a) vehicle alone (DMSO, UN), or (b) 100 nM of α-GalCer (KS), (c) analog 18 (DABB), or (d) analog 19 (DAGBB), as indicated.
The less toxic product mixtures were further examined. These sample mixtures after simple filtration through silica gel were submitted to analysis with ESI-MS. […] Among them, 4-benzyl benzoic acid derived amide product showing the most significant signals was resynthesized in both its ceramidic form 18 and galactosyl ceramidic form 19 (Scheme 6). The subsequent validation experiment was performed by MTT assay and flowcytotmetry (FIG. 4). […] This confirmed the important role played by sugar moieties.

CCCCCCCCCCCCCC[C@@H](O)[C@@H](O)[C@H](CO[C@H]1O[C@H](CNC(=O)c2ccc(CCCC)cc2)[C@H](O)[C@H](O)[C@H]1O)NC(=O)c1ccc(CCCC)cc1 [analog 19, 4-butyl-N-(((2R,3R,4S,5R,6S)-6-(((2S,3S,4R)-2-(4-butylbenzamido)-3,4-dihydroxyoctadecyl)oxy)-3,4,5-trihydroxytetrahydro-2H-pyran-2-yl)methyl)benzamide]
stimulation of Vα24+/Vβ11+ iNKT cell population: stimulats human iNKT cell population; also recorded: stimulative
